Reference: patent US20250057862A1, “SIALIC ACID COMPOSITIONS FOR USE IN INHIBITING AND TREATING INFECTIONS IN FISH” (LifeScience AS, priority 2021, published 2025)
Entries after “also recorded” stand apart in the source; their conditions may differ.

Key:
[1] = Growth and condition (weight, length, fitness factor) on 1% Neu5Ac feed; assay type: in vivo, Atlantic salmon (Salmo salar); conditions: postsmolt, Day 78
Description: (§1) The example describes additional results obtained from feeding salmon a diet containing 1% Neu5Ac w/w. A feeding and morbidity experiment with Atlantic salmon (Salmo salar) was carried out at the Industrial Laboratory in Bergen (ILAB). The purpose of the trial was to investigate the effect of adding 1% Neu5Ac to feed on growth, certain fish health indicators, and the fish's resistance and welfare when infected with salmon lice and ILA virus, respectively. The trial included six main phases, the last two of which ran parallel with different infectious agents (FIG. 4).
(§2) Day 1-8: Acclimatization. Presmolt (approx. 40 g starting weight), freshwater phase. • Bulk weighing of all fish on day 1. • NB: All the fish received exclusively control feed during the acclimatization phase. • Day 8: First sampling. Day 9-41: Growth and preparation for smoltification, freshwater phase. • Different diets started (and continued) from day 9 onwards. • Light regime changed from 12:12 light/dark to 24 hours light on day 15. • Bulk weighing of fish on day 25. • Temperature increased from 12 to 14 degrees on day 28. • Smoltification starts in response to changed light regime and changed temperature. • Day 36: Second sampling. • Bulk weighing of fish on day 37. Day 42-50: Smoltification, transition and acclimatization to saltwater phase. • From 20 salt water from day 42, full salinity and presumed complete smoltification by day 44. • Day 50: Third sampling. • Day 51-78: Postsmolt, growth in seawater phase. • Growth on different diets, no other manipulations. • Day 78: Fourth sampling. Day 79-94: Infection test—salmon lice • A proportion of the fish were taken out of all test vessels on day 79; anesthetized, marked, collected in a common large vessel and infected with salmon lice. • Bulk weighing of the fish taken out for the lice test. • The experimental fish were then distributed according to original diet group, in two new vessels, for further observation. • Day 94: Fourth sampling, lice test completed. […]

[2] = Example 2 mucosal health of gills and skin after sea lice challenge; assay type: in vivo, Atlantic salmon; conditions: fifteen days following challenge with salmon lice; 2 of 3 tanks
Description: An experiment was conducted to determine the mucosal health status of gills, dorsal skin and foregut of Atlantic salmon smolt and postsmolt given sialic acid (NANA) treatment at a single dose (1% in feed) or a control treatment and challenged by sea lice exposure.
Atlantic salmon were reared in the flow-through system of the ILAB facility at 12 C and were reared in freshwater through smoltification to seawater in six tanks, 3 tanks per treatment. The gills and dorsal skin of the fish (n=30 per date, 5 from each replicate tank) were individually sampled on each of the following dates. The foregut of 30 fish was sampled once, while skin samples were not collected on the same date. The samples were processed (buffered formalin fixation, paraffin embedding, sectioned and stained with PAS-AB), digitally scanned and analyzed for mucous cell density (% epithelium filled with mucous cells, A), defense (mucous) cell sizes (mucous cell area, μm^2, D) and defense activity (barrier status, =(1/(A:D))×1000).
The fish were transferred to two large holding tanks and challenged with salmon lice and sampled 15 days later.

[3] = Sialic acids in skin and intestinal mucus and plasma of salmon fed 1% Neu5Ac (bioavailability); assay type: in vivo, Atlantic salmon (Salmo salar)
Description: as §1
as §2, with “sampling.” for “sampling. Day 79-94: Infection test—salmon lice • A proportion of the fish were taken out of all test vessels on day 79; anesthetized, marked, collected in a common large vessel and infected with salmon lice. • Bulk weighing of the fish taken out for the lice test. • The experimental fish were then distributed according to original diet group, in two new vessels, for further observation. • Day 94: Fourth sampling, lice test completed.”
To separate life history effects from a general assessment of bioavailability, the samples from the longest continuous growth phase are first analyzed without experimental manipulations. […]

- Free Neu5Ac in the intestinal mucosa vs control diet ([3]; postsmolt, Day 78): highly significant
- Total Neu5Ac in the intestinal mucosa vs control diet (elevated level) ([3]; postsmolt, Day 78): weakly significant
Structure (SMILES): CC(=O)N[C@H]1[C@H]([C@H](O)[C@H](O)CO)OC(O)(C(=O)O)C[C@@H]1O (stereo partly shown) [Neu5Ac, N-acetyl neuraminic acid]
- % Increase in fitness (condition) factor vs control [1]: 19%
- % Increase in length vs control [1]: 5%
- % Increase in weight vs control [1]: 22%
- Gill mucous cell size after challenge [2]: not significantly reduced
- Bioavailability of free Neu5Ac in feed ([3]; 1% Neu5Ac in feed, salmon, listed as Free Neu5Ac): bioavailable; also recorded: biologically available
